Experimental findings from US9889105B2, “In vivo method for treating, inhibiting, and/or prophylaxis of cancer, such as pancreatic cancer” (U.S. Department of Veterans Affairs, priority 2010, dated 2018) are described below.

The test system of one data set is pancreatic cancer cells. Kind of data set: Cytotoxicity against pancreatic cancer cells. It counts as cell-based. The settings on record: dose- and time-dependent. The procedure: The human pancreatic adenocarcinoma cell lines MIA-PaCa-2, BxPC3, Capan-1 and ASPC-1 were obtained from the American Type Culture Collection (ATCC, Manassas, Va., USA) and grown in Dulbecco's modified Eagles medium (DMEM, Sigma Chemical Co, St Louis, Mo.) supplemented with 1 mM sodium pyruvate (Fisher Chemical Company), 100 U/ml of penicillin and 100 U/ml of streptomycin (Sigma Chemical Co, St Louis, Mo.) and 10% FBS (Hyclone, Road Logan, Utah) at 37° C. in a humidified tissue culture incubator containing 5% CO2 and 95% air. ˜70% confluent cells were treated with different concentrations (1-50 μM) of purified crocetinic acid and commercial crocetin for 72 h.

The test system of another data set is BxPc3 cells. Description: Proliferation assay in BxPC3 cells. The class given is cell-based, human. Particulars: comparison to commercial crocetin. The protocol: (§1) Pancreatic cancer cells were plated at desired density onto 96-well corning tissue culture plates. After 24 hours, cells were treated for 72 hours with different concentrations (1-50 μM) of purified crocetin and crude/commercial crocetin. Cells were labelled with Click-it EdU and were fixed. Then fixed cells were incubated with anti-Oregon Green antibody conjugated to horseradish peroxidase and measured flurescent product (excitation/emission˜568/585).

A further data set relates to DCLK-1. Kind of data set: Western blot of DCLK1 expression. Particulars: Mia-PaCa2 cells. On the set-up: dose or concentration left out as unconfirmed. The class given is cell-based, human. The protocol:
FIG. 7D illustrates DCLK1 expression. Western blot analysis of DCLK1 after treatment of Mia-PaCa2 cells treated with 10 mM of CC and PC of #5, #3 and #1 HPLC fractions.
(§2) The immuno-Western blot analyses were the same as described earlier by Banerjee et al. (Reference 26). Briefly, MIA-PaCa-2 and BxPC-3 cells following treatment with or without crocetin and tumor samples were homogenized. Then, both cell and tumor lysates were spun at 18000 g for 1 hr at 4° C., and the supernatants were collected for immunodetection. Protein concentration was measured by using the Comassie blue reagent assay (Pierce, Rockford, Ill.). Equal amount of protein were resolved in 10% SDS-PAGE, transferred onto nitrocellulose membranes. Membranes were blocked with super block (Pierce, Rockford, Ill.) followed by incubation with appropriate primary antibodies at 4° C., overnight. The antigen-antibody reactions were detected with HRP-conjugated anti-rabbit or anti-mouse IgG for one hour in room temperature. Immunoreactions were visualized by the ECL ([…]) chemiluminescence reagent kit (Pierce, Rockford, Ill.) and relative expression of proteins were calculated by densitometric analyses using ID image Analysis Software version 3.6 (Eastman Kodak Company, Rochester, N.Y.).
In general terms: In western blotting, separated proteins are transferred to a membrane and probed.

The subject of the next data set is EGFR. Kind of data set: Western blot of EGFR (phosphorylated and total) in Panc-1 cells. Particulars: Panc-1, compared with CC. It counts as cell-based, human. Details: dose or concentration left out as unconfirmed. The procedure: FIG. 4B illustrates effect of purified crocetin (PC) and crude crocetin (CC) on EGFR (epidermal growth factor receptor), Akt signaling and Bax/Bcl-2 on Panc-1 cells.
as §2

The subject of data set [1] is MIA-PaCa-2 xenograft tumor. Kind of data set: Pancreatic cancer xenograft tumor growth in athymic nude mice. It counts as in vivo. Particulars: 0.5 mg/kg, oral, 0 to 21 days, in comparison to control. The protocol:
FIG. 5 illustrates pancreatic cancer xenograft tumor growth in athymic (nude) mice. […] The tumor size was measured (right) from the start date of crocetin treatment (0 day) to end date of crocetin treatment (21 days) in comparison to control (no treatment). Number of animals is 5 in the control and treated group;
MIA-PaCa-2 cells (2.5×10^6) were injected into the right hind leg of each mouse for the development of tumor. The mice were divided into two groups (6 mice per group) with a control group and crocetin treatment group. After development of palpable tumor, the tumor size was measured twice in a week. When tumors are well established (approximately 0.34 cm^3); treatment was started. The treatment group received crocetin at 0.5 mg/kg/day orally dissolved in 15 ml of peptamen for 12 hours during dark for 30 days and the dose is in agreement with other investigators (References 14, 17, 20 and 27). Tumor size was monitored twice weekly, and its volume calculated as […], where a=length and b=width. Control group received only peptamen. The mice were given solid food during light time following liquid peptamen diet at dark. All mice were sacrificed after 30 days following treatment and tumors were taken out and stored at −80° C. […]

For data set [2], the system named is Panc-1 cells. Kind of data set: Apoptosis assay (apoptosis kit, Annexin V-FITC flow cytometry and fluorescence microscopy). The class given is cell-based, human. The settings on record: for potency in apoptosis assay relative to crude crocetin: Panc-1, 48-72 hours, versus CC; for stimulating apoptosis: Panc-1 cells. The procedure: FITC Annexin V and PI for flow cytometry provide a rapid and convenient assay for apoptosis. Treated and control cells were incubated with annexin V conjugate and propidium iodide (PI). Then cells were deposited onto slides for fluorescence microscopy. Cells were also used for flow cytometry analysis for live, apoptotic and dead cells using annexin V conjugated to green-fluorescent FITC dye and propidium iodide (PI). Propidium iodide stains necrotic cells with red fluorescence whereas green FITC dye stains apoptotic cells.
We treated Panc-1 pancreatic cancer cells with either purified crocetin or PC (fraction 5 of FIG. 2A) derived from alkaline treatment or crude commercial crocetin or CC (1 and 10 μM concentrations) for 48-72 hours. We have also used higher doses (25, 50 and 100 μM) in this experiment and it needs about 50-100 concentration of CC for inhibition of proliferation and increase of apoptosis at the level of 1 and 10 μm of PC. Treated cells were then labeled with Brdu and cells were assayed by Invitrogen Click-it Edu fluorimetric microplate proliferation kit and apoptosis assay kit.
(A flow cytometer gives signals particle by particle.)

The test system of data set [3] is Panc-1 cells. Kind of data set: Click-it EdU microplate proliferation assay. Particulars: for potency in proliferation assay relative to crude crocetin: Panc-1, 48-72 hours, versus CC; for inhibiting proliferation: Panc-1 cells. The class given is cell-based, human. The protocol:
as §1
[…] We have also used higher doses (25, 50 and 100 μM) in this experiment and it needs about 50-100 concentration of CC for inhibition of proliferation and increase of apoptosis at the level of 1 and 10 μm of PC. Treated cells were then labeled with Brdu and cells were assayed by Invitrogen Click-it Edu fluorimetric microplate proliferation kit and apoptosis assay kit.

Take `CC(C=CC=C(C)C(=O)O)=CC=CC=C(C)C=CC=C(C)C(=O)O` [crocetinic acid]: the cytotoxicity result in the data set on pancreatic cancer cells is “significant cytotoxicity”. For the same molecule, the inhibition of proliferation result in the data set on BxPc3 cells was “significantly inhibited”. Further, the DCLK-1 expression entry is on record as “significantly inhibited” in the data set on DCLK-1 and “reduction” in the data set with DCLK-1 (listed as 5). In the data set with EGFR, the EGFR phosphorylation entry was “significantly inhibited”. Further, the tumor growth entry in data set [1] is listed as “significantly inhibited”. Moreover, the apoptosis entry with Panc-1 cells [2] (1 µM, compared with CC) is reported as “increase”. Also, the “potency in apoptosis assay relative to crude crocetin” value was 50 times in the data set on Panc-1 cells [2] (listed as #5), 50 times with Panc-1 cells [2] (listed as PC) and “about 50 times” in the data set with Panc-1 cells [2] (listed as purified crocetin). The stimulating apoptosis result is on record as “stimulated apoptosis” in the data set with Panc-1 cells [2] and “promising effect” in the data set on Panc-1 cells [2] (listed as #5). Besides, the “apoptosis by flow cytometry and fluorescence microscopy” value in the data set on Panc-1 cells [2] (lower doses) is “significant increase”. Besides, the inhibition in proliferation result in the data set on Panc-1 cells [3] (1 µM, compared with CC) is “highly potent inhibition”. The “potency in proliferation assay relative to crude crocetin” value with Panc-1 cells [3] (listed as #5) is reported as 50 times; in the data set on Panc-1 cells [3] (listed as PC), 50 times; in the data set with Panc-1 cells [3] (listed as purified crocetin), “about 50 times”. Besides, the results for the inhibiting proliferation result in the data set with Panc-1 cells [3] and in the data set on Panc-1 cells [3] (listed as #5) were “significantly inhibited” and “promising effect”, respectively.
